Results from ChEMBL document CHEMBL1201862, “PubChem BioAssay data set” (2004).
Activity calls are given as the source filed them.

Assays:
[1] = molecular target: UDP-galactopyranose mutase (Mycobacterium tuberculosis, UniProt P9WIQ1); assay: Inhibitors of Mycobacterium tuberculosis UDP-galactopyranose mutase (UGM) enzyme Measured in Biochemical System Using Plate Reader - 2105-02_Inhibitor_Dose_CherryPick_Activity. [Related pubchem assays (depositor defined):AID504439]
[2] = molecular target: T1, Endoribonuclease toxin MazF (Escherichia coli K-12, UniProt P0AE70); assay: fluorescent RNA oligo signal without MazF, dose response, counter-screen for MazEF activator project, biochemical, fluorescence, single-stranded RNase substrate (AID 588502); type: functional
T1 sequence (P0AE70 whole entry): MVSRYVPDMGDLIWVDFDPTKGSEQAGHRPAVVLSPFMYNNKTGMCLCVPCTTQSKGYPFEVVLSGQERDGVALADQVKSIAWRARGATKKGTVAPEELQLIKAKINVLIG

[3] = molecular target: T2, Zinc finger protein mex-5 (Caenorhabditis elegans, UniProt Q9XUB2); assay: MEX-5/TCR-2 RNA interaction inhibitors, dose response, biochemical, C. elegans, fluorescence polarization (AID 1960)
T2 sequence (Q9XUB2 whole entry): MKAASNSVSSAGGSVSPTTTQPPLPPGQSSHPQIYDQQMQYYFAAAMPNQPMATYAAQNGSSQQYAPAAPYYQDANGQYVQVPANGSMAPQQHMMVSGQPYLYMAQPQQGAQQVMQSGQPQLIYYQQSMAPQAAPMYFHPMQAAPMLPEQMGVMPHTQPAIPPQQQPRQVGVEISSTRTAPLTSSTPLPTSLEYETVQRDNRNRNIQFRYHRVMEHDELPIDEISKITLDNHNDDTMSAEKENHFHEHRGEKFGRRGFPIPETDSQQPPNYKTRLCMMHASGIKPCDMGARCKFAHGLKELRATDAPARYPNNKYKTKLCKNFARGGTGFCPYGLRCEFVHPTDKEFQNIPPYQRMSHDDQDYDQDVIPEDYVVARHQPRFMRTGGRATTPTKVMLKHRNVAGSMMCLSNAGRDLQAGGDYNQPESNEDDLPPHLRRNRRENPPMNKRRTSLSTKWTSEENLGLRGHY

[4] = molecular target: T3, Corticotropin-releasing factor receptor 2/Corticotropin-releasing factor-binding protein (Homo sapiens, UniProt P24387+Q13324); assay: activators of CRF receptor 2 with binding protein – uHTS hits, confirmation (AID 602473); type: functional; settings: read-out: EC50_Mean
T3 sequence (Q13324 whole entry): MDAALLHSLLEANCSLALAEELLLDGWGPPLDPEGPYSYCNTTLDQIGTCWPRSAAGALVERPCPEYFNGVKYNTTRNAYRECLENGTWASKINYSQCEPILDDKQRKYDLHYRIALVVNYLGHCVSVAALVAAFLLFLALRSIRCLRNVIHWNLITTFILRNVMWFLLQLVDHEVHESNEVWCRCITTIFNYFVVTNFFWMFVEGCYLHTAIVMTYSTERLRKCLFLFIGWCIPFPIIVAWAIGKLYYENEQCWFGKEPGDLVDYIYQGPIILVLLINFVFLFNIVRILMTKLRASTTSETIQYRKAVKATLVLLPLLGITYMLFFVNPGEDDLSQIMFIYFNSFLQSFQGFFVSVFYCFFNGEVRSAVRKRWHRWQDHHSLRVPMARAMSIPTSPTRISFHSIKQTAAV
T3 sequence (P24387 whole entry): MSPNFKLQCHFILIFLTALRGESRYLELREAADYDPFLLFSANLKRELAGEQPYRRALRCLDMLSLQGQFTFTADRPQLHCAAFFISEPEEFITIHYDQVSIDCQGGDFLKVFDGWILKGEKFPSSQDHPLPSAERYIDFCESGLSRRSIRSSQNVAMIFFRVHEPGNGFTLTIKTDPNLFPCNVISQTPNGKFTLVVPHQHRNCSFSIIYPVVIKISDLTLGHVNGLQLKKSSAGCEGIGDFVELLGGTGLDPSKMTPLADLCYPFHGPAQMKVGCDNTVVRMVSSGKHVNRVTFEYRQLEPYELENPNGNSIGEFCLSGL

[5] = molecular target: T4, RNA-binding protein pos-1 (Caenorhabditis elegans, UniProt G5EF15); assay: inhibitors of POS-1/mex-3 RNA binding, dose response, biochemical, fluorescence polarization (AID 1964);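 note: purified POS-1 fused to maltose binding protein made in E. coli; potency of compounds blocking POS-1 binding to fluorescent RNA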
T4 sequence (G5EF15 whole entry): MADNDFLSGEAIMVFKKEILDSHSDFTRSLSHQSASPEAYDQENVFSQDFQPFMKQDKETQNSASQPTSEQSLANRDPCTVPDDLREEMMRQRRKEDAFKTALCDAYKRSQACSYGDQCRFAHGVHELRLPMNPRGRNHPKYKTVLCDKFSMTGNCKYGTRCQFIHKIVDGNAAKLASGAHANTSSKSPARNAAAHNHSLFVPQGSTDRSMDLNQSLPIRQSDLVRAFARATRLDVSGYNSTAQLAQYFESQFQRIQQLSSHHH

[6] = molecular target: T1, Endoribonuclease toxin MazF; assay: MazF toxin RNase activators, dose response, biochemical, fluorescence, single-stranded RNA substrate, uHTS hits (AID 588481); type: functional
[7] = molecular target: T5, Glutathione-S-transferase (Schistosoma japonicum, UniProt Q26513); assay: biotin-GST/anti-GST TR-FRET signal inhibitors, dose response, artefact control for Vif-APOBEC3G degradation inhibitor project, biochemical (AID 1117362); type: functional
T5 sequence (Q26513 whole entry): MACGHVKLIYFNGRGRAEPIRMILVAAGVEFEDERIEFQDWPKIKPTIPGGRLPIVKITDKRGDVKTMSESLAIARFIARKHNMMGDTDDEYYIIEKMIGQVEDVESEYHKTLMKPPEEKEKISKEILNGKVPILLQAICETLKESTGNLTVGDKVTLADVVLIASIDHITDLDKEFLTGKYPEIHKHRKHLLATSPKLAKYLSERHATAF

[8] = molecular target: T6, Lysine-specific demethylase 4A (Homo sapiens, UniProt O75164); assay: JMJD2A histone demethylase inhibitors, dose response, selectivity assay for GASC-1 inhibitor project, biochemical, DELFIA europium, cherry-picked samples (AID 488840)
T6 sequence (O75164 whole entry): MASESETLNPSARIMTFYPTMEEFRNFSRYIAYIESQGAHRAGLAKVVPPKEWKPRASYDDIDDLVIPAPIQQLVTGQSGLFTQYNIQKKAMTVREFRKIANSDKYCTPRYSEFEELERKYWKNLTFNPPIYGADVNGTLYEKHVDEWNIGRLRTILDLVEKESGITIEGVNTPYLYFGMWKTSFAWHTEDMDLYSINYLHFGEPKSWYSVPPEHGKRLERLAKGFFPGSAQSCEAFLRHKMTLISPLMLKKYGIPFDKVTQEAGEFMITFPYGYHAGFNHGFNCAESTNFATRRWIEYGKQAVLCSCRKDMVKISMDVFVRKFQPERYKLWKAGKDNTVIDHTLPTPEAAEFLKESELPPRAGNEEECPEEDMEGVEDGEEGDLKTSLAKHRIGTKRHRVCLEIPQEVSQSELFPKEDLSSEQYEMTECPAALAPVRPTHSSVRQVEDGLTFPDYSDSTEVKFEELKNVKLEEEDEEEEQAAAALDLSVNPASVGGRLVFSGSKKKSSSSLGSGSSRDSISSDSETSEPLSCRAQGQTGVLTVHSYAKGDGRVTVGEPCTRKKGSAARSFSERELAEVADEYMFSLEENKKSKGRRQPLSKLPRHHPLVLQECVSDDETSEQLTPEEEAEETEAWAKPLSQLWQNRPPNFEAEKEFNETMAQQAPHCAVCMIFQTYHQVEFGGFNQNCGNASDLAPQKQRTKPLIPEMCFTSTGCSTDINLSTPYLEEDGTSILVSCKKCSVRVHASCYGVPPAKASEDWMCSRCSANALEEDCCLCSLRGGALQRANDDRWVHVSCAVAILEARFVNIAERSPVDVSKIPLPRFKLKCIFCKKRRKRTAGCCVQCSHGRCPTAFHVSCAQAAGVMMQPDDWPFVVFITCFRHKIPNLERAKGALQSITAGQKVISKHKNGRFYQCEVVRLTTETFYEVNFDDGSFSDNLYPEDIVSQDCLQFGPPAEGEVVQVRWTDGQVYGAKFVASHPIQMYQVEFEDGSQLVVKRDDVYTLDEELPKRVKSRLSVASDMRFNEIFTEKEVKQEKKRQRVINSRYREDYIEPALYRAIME

[9] = molecular target: NS3 (Hepatitis C virus, UniProt A3EZJ3); assay: PubChem AID 2173; design: species or system Hepacivirus hominis
Chain of NS3 (A3EZJ3 whole entry): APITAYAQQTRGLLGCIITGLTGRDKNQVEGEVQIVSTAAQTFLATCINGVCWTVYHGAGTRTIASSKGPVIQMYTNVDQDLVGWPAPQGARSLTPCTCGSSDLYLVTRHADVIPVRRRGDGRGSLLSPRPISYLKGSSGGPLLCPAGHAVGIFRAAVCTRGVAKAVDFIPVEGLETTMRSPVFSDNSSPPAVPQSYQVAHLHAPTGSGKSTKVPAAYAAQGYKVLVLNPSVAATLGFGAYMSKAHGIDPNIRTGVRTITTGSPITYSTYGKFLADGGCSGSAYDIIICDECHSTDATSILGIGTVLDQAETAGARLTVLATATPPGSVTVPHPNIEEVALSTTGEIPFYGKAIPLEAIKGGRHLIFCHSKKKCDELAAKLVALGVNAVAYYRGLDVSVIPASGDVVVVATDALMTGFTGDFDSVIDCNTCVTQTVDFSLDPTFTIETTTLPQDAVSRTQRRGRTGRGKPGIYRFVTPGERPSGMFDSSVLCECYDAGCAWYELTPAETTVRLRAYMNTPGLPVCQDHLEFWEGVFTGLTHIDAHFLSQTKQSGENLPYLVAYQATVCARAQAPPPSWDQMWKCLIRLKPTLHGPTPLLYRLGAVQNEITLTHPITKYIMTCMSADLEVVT

[10] = molecular target: T7, Voltage-gated N-type calcium channel alpha-1B subunit/Amyloid beta A4 precursor protein-binding family A member 1 (Homo sapiens, UniProt Q00975+Q02410); assay: disruptors of Mint-PDZ/N-type channel peptide interaction – biochemical, HTRF, SAR follow-up (AID 2489); type: functional
T7 sequence (Q00975 whole entry): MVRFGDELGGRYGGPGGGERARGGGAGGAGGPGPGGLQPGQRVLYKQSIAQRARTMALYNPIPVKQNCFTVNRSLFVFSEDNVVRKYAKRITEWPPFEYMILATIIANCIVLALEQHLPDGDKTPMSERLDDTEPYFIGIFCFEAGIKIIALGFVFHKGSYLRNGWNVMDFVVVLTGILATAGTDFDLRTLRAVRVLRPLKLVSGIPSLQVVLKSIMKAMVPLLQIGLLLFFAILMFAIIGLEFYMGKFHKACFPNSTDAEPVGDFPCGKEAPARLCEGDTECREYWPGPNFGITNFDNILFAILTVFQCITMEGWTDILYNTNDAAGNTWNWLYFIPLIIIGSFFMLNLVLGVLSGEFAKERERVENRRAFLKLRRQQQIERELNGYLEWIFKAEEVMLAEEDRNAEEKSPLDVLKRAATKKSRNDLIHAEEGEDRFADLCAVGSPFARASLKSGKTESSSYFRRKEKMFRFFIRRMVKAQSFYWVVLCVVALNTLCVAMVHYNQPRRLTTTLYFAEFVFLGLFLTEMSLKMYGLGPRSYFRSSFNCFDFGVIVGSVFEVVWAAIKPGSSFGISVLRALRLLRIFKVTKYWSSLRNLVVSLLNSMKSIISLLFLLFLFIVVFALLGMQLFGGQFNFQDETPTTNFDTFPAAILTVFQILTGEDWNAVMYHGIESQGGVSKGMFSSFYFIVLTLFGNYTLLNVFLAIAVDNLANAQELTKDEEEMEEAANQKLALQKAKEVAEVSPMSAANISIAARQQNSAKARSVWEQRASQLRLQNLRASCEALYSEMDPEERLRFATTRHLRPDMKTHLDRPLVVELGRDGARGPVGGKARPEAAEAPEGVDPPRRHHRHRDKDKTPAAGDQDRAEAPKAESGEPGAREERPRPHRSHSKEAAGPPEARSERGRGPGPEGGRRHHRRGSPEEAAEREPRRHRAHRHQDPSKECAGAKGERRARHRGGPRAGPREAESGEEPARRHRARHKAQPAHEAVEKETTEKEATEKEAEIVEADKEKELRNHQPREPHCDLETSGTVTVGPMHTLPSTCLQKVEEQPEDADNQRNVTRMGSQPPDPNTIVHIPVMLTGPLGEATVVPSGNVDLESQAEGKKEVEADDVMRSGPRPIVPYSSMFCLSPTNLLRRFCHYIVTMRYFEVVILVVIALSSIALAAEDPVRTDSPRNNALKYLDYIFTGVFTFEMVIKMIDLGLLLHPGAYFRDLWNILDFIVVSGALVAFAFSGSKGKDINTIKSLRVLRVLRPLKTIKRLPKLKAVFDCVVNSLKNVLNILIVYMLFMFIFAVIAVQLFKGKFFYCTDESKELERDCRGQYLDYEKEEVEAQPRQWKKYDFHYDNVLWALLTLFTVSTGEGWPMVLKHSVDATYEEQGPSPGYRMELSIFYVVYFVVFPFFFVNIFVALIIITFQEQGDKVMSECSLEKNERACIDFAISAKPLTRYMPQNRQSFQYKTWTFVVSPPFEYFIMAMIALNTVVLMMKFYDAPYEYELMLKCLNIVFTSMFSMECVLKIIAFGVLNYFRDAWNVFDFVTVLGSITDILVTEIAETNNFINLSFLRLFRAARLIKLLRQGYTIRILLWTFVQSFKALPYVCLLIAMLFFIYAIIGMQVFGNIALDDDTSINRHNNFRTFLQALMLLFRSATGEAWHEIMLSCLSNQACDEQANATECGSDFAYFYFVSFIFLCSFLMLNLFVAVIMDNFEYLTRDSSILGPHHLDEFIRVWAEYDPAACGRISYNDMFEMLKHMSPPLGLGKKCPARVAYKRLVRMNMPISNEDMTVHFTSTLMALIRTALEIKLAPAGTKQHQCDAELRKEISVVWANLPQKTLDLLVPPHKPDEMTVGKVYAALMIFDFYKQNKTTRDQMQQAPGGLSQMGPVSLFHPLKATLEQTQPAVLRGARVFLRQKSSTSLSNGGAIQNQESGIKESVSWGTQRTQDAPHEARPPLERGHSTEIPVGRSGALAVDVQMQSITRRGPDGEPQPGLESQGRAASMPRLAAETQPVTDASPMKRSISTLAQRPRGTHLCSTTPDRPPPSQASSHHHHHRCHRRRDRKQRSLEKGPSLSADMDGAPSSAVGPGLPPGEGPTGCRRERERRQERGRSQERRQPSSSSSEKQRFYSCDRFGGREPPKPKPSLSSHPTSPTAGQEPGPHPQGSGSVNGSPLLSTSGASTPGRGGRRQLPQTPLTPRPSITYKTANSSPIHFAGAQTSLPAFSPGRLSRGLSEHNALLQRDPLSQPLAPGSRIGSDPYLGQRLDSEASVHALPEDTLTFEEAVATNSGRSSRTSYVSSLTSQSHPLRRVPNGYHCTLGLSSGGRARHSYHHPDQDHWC
T7 sequence (Q02410 whole entry): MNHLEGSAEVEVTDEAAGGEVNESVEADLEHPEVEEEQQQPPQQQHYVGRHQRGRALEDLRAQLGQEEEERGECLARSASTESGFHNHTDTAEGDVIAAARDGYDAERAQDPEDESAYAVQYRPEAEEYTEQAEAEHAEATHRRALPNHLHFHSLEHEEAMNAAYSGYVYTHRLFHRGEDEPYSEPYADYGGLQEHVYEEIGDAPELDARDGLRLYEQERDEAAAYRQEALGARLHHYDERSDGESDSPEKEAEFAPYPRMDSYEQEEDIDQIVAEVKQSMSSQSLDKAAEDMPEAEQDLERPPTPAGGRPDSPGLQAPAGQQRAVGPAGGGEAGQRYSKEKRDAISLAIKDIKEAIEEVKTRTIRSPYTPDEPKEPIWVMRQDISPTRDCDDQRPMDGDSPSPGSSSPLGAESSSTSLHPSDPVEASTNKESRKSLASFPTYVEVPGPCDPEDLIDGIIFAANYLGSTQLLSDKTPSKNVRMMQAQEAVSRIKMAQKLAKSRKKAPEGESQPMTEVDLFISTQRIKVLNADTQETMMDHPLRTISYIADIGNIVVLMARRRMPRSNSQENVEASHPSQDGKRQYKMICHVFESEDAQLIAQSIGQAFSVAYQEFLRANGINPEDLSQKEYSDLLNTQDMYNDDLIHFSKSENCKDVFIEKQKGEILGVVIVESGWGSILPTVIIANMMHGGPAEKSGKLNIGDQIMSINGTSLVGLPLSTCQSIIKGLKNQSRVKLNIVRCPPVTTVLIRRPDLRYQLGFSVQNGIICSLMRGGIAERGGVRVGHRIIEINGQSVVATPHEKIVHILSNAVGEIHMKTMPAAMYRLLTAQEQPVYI

[11] = molecular target: T7, Voltage-gated N-type calcium channel alpha-1B subunit/Amyloid beta A4 precursor protein-binding family A member 1; type: protein assay
[12] = molecular target: Troponin, cardiac muscle (Homo sapiens, UniProt P19429+P45379+P63316); assay: inhibitors of cardiac thin filament calcium sensitivity, dose response, biochemical, fluorescence, cardiac regulated thin filaments, triplicate IC50 (AID 504742); type: protein-complex assay
[13] = molecular target: Lysine-specific demethylase 4C (Homo sapiens, UniProt Q9H3R0); assay: GASC-1 (JMJD2C) histone demethylase inhibitors, dose response, biochemical, DELFIA europium, cherry-picked samples (AID 488835); type: functional
Chain of Lysine-specific demethylase 4C (Q9H3R0 whole entry): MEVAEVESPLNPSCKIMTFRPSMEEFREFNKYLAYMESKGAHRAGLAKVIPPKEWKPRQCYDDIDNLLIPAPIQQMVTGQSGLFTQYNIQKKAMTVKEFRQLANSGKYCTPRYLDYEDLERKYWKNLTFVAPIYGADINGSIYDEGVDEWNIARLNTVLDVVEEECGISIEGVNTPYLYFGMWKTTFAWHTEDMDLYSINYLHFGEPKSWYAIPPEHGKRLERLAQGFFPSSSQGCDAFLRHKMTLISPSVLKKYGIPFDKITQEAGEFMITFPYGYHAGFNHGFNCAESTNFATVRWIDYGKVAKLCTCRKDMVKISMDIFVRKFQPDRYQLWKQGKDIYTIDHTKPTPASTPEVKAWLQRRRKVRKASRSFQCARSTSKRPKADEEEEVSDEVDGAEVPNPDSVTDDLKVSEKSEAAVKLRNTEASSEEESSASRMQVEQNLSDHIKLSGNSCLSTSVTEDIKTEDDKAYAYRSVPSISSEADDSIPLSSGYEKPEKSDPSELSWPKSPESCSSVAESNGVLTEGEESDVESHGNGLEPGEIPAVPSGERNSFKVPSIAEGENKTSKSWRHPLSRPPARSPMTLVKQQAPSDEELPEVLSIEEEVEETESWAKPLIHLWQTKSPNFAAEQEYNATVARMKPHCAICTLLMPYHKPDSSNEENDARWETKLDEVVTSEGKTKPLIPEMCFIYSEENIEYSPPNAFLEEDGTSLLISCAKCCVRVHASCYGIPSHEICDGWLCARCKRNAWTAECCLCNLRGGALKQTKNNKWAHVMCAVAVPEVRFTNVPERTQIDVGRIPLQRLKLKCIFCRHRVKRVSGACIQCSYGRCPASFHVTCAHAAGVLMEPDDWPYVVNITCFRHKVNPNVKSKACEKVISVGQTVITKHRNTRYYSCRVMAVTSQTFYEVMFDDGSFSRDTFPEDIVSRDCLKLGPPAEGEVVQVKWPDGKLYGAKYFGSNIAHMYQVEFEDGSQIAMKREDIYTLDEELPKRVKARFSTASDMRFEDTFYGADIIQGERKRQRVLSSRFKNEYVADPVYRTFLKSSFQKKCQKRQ

[14] = molecular target: T7, Voltage-gated N-type calcium channel alpha-1B subunit/Amyloid beta A4 precursor protein-binding family A member 1; type: protein assay; remark: listed apart in the source
[15] = molecular target: T7, Voltage-gated N-type calcium channel alpha-1B subunit/Amyloid beta A4 precursor protein-binding family A member 1; assay: disruptors of Mint-PDZ/N-type channel peptide interaction – biochemical, HTRF, set 2, SAR follow-up (AID 434980); type: functional
[16] = molecular target: CAAX prenyl protease 1 (Saccharomyces cerevisiae S288c, UniProt P47154); assay: Ste24 protease inhibitors, dose response, biochemical, S. cerevisiae, plate reader, cherry-pick (AID 488815)
[17] = molecular target: T8, CAAX prenyl protease 2 (Saccharomyces cerevisiae S288c, UniProt Q03530); type: biochemical
T8 sequence (Q03530 whole entry): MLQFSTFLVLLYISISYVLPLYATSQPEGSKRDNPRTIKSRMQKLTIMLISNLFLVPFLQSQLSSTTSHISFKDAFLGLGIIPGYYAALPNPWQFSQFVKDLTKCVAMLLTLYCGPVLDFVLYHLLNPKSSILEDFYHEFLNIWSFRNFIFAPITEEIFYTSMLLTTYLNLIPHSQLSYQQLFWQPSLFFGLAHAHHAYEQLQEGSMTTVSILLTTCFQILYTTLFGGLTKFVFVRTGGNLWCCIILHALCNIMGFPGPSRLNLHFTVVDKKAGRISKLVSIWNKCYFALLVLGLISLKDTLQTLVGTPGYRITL

[18] = molecular target: T9, Short transient receptor potential channel 4 (Mus musculus, UniProt Q9QUQ5); assay: mouse TRPC4 channel activators, dose response, cell-based, HEK293 TRPC4/mu-opioid, Fluo-4 calcium (AID 434937); type: functional
T9 sequence (Q9QUQ5 whole entry): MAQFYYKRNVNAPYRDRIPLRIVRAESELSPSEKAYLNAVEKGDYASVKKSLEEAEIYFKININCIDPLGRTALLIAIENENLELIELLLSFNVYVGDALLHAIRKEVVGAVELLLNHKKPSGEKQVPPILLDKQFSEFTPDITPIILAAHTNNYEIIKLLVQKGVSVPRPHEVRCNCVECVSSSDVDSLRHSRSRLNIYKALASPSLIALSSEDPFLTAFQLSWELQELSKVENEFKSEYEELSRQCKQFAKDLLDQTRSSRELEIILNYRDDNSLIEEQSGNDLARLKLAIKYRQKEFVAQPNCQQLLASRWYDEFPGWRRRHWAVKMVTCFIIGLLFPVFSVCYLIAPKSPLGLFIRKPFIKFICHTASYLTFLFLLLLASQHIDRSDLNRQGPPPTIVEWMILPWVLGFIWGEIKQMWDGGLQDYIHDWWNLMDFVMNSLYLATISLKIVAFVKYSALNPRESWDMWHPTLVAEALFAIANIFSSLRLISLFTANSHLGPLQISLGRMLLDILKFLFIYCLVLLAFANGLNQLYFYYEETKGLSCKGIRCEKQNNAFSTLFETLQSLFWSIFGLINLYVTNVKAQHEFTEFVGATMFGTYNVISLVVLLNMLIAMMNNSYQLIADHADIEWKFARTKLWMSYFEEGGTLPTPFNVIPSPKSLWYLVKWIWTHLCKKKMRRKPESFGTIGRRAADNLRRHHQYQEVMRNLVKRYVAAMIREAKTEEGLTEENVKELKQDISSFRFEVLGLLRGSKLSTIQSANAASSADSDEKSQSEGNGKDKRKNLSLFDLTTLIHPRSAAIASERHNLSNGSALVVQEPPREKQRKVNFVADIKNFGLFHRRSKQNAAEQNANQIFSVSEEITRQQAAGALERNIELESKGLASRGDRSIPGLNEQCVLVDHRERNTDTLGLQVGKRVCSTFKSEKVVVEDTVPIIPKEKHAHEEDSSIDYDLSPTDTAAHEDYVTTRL

[19] = molecular target: T9, Short transient receptor potential channel 4; assay: mouse TRPC4 channel inhibitors, dose response, cell-based, HEK293 TRPC4/mu-opioid, Fluo-4 calcium (AID 434942); type: functional;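 note: potency of inhibitors blocking the TRPC4 calcium response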
[20] = inhibitors of Trypanosoma cruzi host-cell infection, confirmation, beta-gal luminescence, NIH3T3 host cells (AID 2630); type: functional, cell-based; settings: Mus musculus

## COc1ccc2nc3ccccc3nc2c1NC(=O)c1ccc(Cl)cc1Cl
[1]
  AC50: 171 µM (active)
[2]
  EC50: 27.6 µM (inactive)
[3]
  EC50: 3.71 µM (inconclusive)
[4]
  EC50: 6.99 µM (active)
[5]
  EC50: 3.15 µM (inconclusive)
[6]
  EC50: > 99 µM (inactive)

## Nc1c(C(=O)NC2CC2)sc2nc3c(c(-c4ccco4)c12)CC/C3=C/c1ccco1
[7]
  IC50: 54 µM (active)
[8]
  AC50: 6.07 µM (active)
[9]
  IC50: 5.48 µM (active)
[10]
  IC50: 17.2 µM (active)
[11]
  IC50: 3.99 µM (active)
[12]
  IC50: > 71.5 µM (inactive)
[13]
  AC50: 4.71 µM (active)
[14]
  IC50: 13.1 µM (active)
[15]
  IC50: 1.04 µM (active)

## O=C(C[n+]1cc2ccccc2c2ccccc21)c1ccccc1
[16]
  AC50: 10.2 µM (active)
[17]
  AC50: 5.91 µM (active)
[18]
  EC50: 4.22 µM (active)
[19]
  EC50: 3.76 µM (active)

## Cc1ccc(NC(=O)CCC(=O)N/N=C/c2ccco2)c(C)c1
[20]
  EC50: 195 µM (inactive)
